In publication PMC7429991 (Journal of medicinal chemistry, 2020):
Structures can show the parent of a compound that is named as a salt.

Key:
[1] = molecular target: M336V/D597N rnNOS (Rattus norvegicus, UniProt P29476, D597N/M336V); details: M336V/D597N vs D597N rnNOS
[2] = test system: panel of 45 pharmacologically relevant CNS targets and receptors; assay: PDSP off-target radioligand displacement screen; type: binding; details: for PDSP targets classified moderate / PDSP targets classified insignificant / PDSP targets classified weak / PDSP targets classified Concerning: number of 45 targets; for PDSP targets classified moderate: 100–300 nM; for PDSP targets classified insignificant: <50% bound at 10 μM; for PDSP targets classified weak: >300 nM; for fraction of concerning or moderate hits: PDSP panel
[3] = molecular target: H3 receptor (Homo sapiens, UniProt Q9Y5N1); assay: PDSP off-target binding, H3 receptor
[4] = from PAMPA-BBB Pe
[5] = molecular target: human eNOS (heNOS) (Homo sapiens, UniProt P29474)
[6] = molecular target: rat nNOS (rnNOS) (Rattus norvegicus, UniProt P29476)
[7] = molecular target: human iNOS (hiNOS) (Homo sapiens, UniProt P35228); details: read-out: Ki hiNOS; purified human iNOS; Ki from IC50 (Cheng-Prusoff)
[8] = molecular target: H2 receptor (Homo sapiens, UniProt P25021); assay: PDSP off-target binding, H2 receptor
[9] = molecular target: D597N rnNOS (Rattus norvegicus, UniProt P29476, D597N)

Chain of M336V/D597N rnNOS (P29476 whole entry M336V/D597N): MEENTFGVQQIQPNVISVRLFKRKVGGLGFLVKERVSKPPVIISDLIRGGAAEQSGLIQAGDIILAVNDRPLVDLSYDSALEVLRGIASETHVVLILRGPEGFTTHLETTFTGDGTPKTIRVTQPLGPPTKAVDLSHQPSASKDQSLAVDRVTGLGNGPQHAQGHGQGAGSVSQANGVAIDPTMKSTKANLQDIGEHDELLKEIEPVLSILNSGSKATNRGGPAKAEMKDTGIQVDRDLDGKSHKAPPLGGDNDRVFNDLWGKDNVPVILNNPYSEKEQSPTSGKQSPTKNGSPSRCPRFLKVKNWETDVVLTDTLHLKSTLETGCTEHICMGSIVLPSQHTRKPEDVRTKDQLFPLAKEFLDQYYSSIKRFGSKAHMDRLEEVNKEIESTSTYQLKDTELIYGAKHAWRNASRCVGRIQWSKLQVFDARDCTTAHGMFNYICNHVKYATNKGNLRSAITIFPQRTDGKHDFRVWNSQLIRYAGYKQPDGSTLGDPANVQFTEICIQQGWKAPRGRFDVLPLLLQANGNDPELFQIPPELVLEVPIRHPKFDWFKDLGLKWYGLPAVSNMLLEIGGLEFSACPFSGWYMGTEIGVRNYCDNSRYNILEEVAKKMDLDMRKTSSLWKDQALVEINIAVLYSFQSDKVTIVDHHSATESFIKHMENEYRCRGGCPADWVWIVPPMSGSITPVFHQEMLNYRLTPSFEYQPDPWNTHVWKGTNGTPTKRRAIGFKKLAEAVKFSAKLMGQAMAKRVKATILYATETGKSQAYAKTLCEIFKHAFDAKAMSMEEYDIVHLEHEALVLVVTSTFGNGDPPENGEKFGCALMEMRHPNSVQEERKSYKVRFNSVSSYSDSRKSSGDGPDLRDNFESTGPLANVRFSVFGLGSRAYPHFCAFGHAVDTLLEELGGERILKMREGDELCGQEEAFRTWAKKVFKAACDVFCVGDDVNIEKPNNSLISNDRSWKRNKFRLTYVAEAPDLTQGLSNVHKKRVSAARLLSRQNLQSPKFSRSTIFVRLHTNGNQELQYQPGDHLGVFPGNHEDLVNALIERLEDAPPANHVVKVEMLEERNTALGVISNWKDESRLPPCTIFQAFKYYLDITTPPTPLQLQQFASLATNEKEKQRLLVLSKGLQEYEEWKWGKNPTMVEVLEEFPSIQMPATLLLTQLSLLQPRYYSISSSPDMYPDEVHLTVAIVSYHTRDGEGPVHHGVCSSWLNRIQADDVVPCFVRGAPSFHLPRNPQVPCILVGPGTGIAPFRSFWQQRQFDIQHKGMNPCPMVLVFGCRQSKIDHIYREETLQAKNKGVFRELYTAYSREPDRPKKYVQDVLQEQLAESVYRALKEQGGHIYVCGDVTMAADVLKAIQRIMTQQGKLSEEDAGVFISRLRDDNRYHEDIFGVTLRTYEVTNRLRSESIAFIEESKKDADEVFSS
Chain of H2 receptor (P25021 whole entry): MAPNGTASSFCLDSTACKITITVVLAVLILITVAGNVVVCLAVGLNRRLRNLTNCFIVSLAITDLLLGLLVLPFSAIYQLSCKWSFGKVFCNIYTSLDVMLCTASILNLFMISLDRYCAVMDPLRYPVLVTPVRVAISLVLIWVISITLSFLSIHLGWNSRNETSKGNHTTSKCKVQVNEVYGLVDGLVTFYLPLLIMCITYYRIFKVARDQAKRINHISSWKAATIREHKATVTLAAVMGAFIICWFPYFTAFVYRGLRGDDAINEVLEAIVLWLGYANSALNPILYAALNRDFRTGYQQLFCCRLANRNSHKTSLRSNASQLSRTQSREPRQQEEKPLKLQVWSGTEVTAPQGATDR
Chain of H3 receptor (Q9Y5N1 whole entry): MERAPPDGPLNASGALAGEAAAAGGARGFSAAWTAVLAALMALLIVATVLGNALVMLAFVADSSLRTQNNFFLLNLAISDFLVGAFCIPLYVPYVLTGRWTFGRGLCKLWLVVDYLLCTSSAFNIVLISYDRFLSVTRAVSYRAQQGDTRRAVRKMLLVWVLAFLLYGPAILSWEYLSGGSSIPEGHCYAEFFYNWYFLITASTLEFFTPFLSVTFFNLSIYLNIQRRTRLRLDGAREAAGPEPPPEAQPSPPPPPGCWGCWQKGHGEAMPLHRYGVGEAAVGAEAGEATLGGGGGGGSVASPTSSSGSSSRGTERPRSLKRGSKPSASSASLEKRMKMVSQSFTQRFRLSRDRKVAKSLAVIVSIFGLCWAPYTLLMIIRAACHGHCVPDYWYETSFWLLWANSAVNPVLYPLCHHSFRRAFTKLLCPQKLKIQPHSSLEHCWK

Cc1cc(N)nc2cc(-c3ccc(OCc4cocn4)c(CN)c3)ccc12 [compound 36, 7-(3-(Aminomethyl)-4-(oxazol-4-ylmethoxy)phenyl)-4-methylquinolin-2-amine Trihydrochloride]
increased potency against the double mutant (versus the single mutant) [1]: 5 fold

Cc1cc(N)nc2cc(-c3ccc(OCC4CC4)c(CN)c3)ccc12 [compound 29, 7-(3-(Aminomethyl)-4-(cyclopropylmethoxy)phenyl)-4-methylquinolin-2-amine Dihydrochloride]
PDSP targets classified moderate [2]: 4 | PDSP targets classified insignificant [2]: 13 | PDSP targets classified weak [2]: 27 | PDSP targets classified Concerning ([2]; Ki < 100 nM): 1 | off-target binding class, H3 receptor [3]: concerning (concerning (Ki < 100 nM, or <~2 × nNOS Ki value)) | prediction (CNS) [4]: CNS (+) (classified as a “CNS (+)” molecule if its effective permeability (Pe) in this assay is larger than 4.0 × 10^–6 cm s^–1)

Cc1cc(N)nc2cc(-c3ccc(OCc4cccnc4)c(CN)c3)ccc12 [compound 33, 7-(3-(Aminomethyl)-4-(pyridin-3-ylmethoxy)phenyl)-4-methylquinolin-2-amine Trihydrochloride]
improvement in binding affinity toward heNOS ([5]; 33 versus 32): 3 fold | fraction of concerning or moderate hits [2]: 8 /45 | PDSP targets classified moderate [2]: 5 | PDSP targets classified insignificant [2]: 20 | PDSP targets classified weak [2]: 17 | PDSP targets classified Concerning ([2]; […]): 3 | prediction (CNS) [4]: CNS (+) (classified as a “CNS (+)” molecule if its effective permeability (Pe) in this assay is larger than 4.0 × 10^–6 cm s^–1)

NCCc1ccc(O)c(O)c1 [dopamine, reference compound]
prediction (CNS) [4]: CNS (−)

CNCCc1ccc(-c2ccc3c(C)cc(N)nc3c2)cc1.Cl.Cl [compound 6, 4-Methyl-7-(4-(2-(methylamino)ethyl)phenyl)quinolin-2-amine Dihydrochloride]
loss in rnNOS activity ([6]; relative to 5): > 2 fold

Cc1cc(N)nc2cc(-c3ccc(CN)cc3)ccc12.Cl.Cl [compound 7, 7-(4-(Aminomethyl)phenyl)-4-methylquinolin-2-amine Dihydrochloride]
prediction (CNS) [4]: CNS (+) (classified as a “CNS (+)” molecule if its effective permeability (Pe) in this assay is larger than 4.0 × 10^–6 cm s^–1) | increase in rnNOS activity ([6]; relative to 5): 2.3 fold

Cc1cc(N)nc2cc(-c3ccc(OCc4cncs4)c(CN)c3)ccc12 [compound 37, 7-(3-(Aminomethyl)-4-(thiazol-5-ylmethoxy)phenyl)-4-methylquinolin-2-amine Trihydrochloride]
prediction (CNS) [4]: CNS (+) (classified as a “CNS (+)” molecule if its effective permeability (Pe) in this assay is larger than 4.0 × 10^–6 cm s^–1)

Cc1cc(N)nc2cc(-c3cncc(CN)c3)ccc12.Cl.Cl.Cl [compound 15, 7-(5-(Aminomethyl)pyridin-3-yl)-4-methylquinolin-2-amine Trihydrochloride]
less potent than 12 in rnNOS ([6]; relative to 12): approximately 5 fold

7-(3-(2-Aminoethyl)phenyl)-4-methylquinolin-2-amine Dihydrochloride [compound 12]
Ki ([5]; read-out: Ki heNOS, purified human eNOS, Ki calculated from IC50): 52.6 µM | Ki [7]: 29.9 µM | off-target binding class, H2 receptor [8]: concerning (concerning (Ki < 100 nM, or <~2 × nNOS Ki value)) | prediction (CNS) [4]: CNS (+) (classified as a “CNS (+)” molecule if its effective permeability (Pe) in this assay is larger than 4.0 × 10^–6 cm s^–1) | Ki ([9]; read-out: Ki D597N rnNOS, single mutant (SM) of rat nNOS): 416 nM | decrease in potency, D597N mutant ([9]; versus wild type): 8 fold | % remaining at 60 min (- NADPH) (HLM without NADPH, pH 7.4): 87% | % remaining at 60 min (Buffer) (buffer control): 67% | CLint (in vitro intrinsic clearance, HLM): 8 mL/min/kg

Cc1cc(N)nc2cc(-c3ccc(OCc4ccccn4)c(CN)c3)ccc12 [compound 32, 7-(3-(Aminomethyl)-4-(pyridin-2-ylmethoxy)phenyl)-4-methylquinolin-2-amine Trihydrochloride]
fraction of concerning or moderate hits [2]: 11 /45 | PDSP targets classified insignificant [2]: 12 | PDSP targets classified weak [2]: 22 | PDSP targets classified Concerning ([2]; […]): 4
